Results: US12121540B2, “CBL inhibitors and compositions for use in adoptive cell therapy” (Nurix Therapeutics, Inc., priority 2019, dated 2024)

Tested on: E.G7-OVA tumors
Assay: Oral Cbl inhibitor treatment with expanded OT-1 cells in tumor-bearing mice
Type: in vivo, mouse
Description: Tumor volume was measured roughly every five days after cell transfer.
OT-1 cells were assessed in mouse blood 5 days and 20 days after transfer.

Q: `C[C@H]1CCCN(Cc2cc3c(c(C(F)(F)F)c2)CN(c2cccc([C@]4(c5nncn5C)C[C@@H](C)C4)c2)C3=O)C1` [compound 116] was tested. Which “Anti-tumor efficacy (tumor volume) of OT-1 cells” value (oral administration, OT-1 cells expanded with compound 103 plus IL-2, FIG. 18) did it give?
A: enhanced the anti-tumor efficacy

Q: And the Survival of mice (oral administration, OT-1 cells expanded with compound 103 plus IL-2, FIG. 19)?
A: enhanced survival

Q: What about the “Persistence of OT-1 cells in mouse blood” value (oral, OT-1 cells expanded with Cbl inhibitor plus IL-2) of the same compound?
A: longer persistence

Q: And the “Frequency of OT-1 cells in mouse blood” value (oral, OT-1 cells expanded with Cbl inhibitor plus IL-2, 5 and 20 days after transfer)?
A: increased frequency
